# Assays:
# [1] = system: Acinetobacter baumannii; assay: Antibacterial activity against Acinetobacter baumannii ATCC 17978 assessed as inhibition of bacterial growth incubated for 18 hrs by two fold broth microdilution assay; type: functional
# [2] = system: Acinetobacter baumannii; assay: Antibiotic adjuvant activity against Acinetobacter baumannii ATCC 17978 assessed as fold potentiation incubated for 18 hrs in presence of vancomycin by two fold broth microdilution checkerboard assay; type: functional
# [3] = system: Acinetobacter baumannii; assay: Antibiotic adjuvant activity against multi-drug resistant Acinetobacter baumannii clinical isolate AB031 assessed as fractional inhibitory concentration index incubated for 18 hrs in presence of Rifampicin by two fold broth microdilution checkerboard assay; type: functional
# [4] = system: Acinetobacter baumannii; assay: Antibiotic adjuvant activity against multi-drug resistant Acinetobacter baumannii clinical isolate LAC-4 assessed as fractional inhibitory concentration index incubated for 18 hrs in presence of Rifampicin by two fold broth microdilution checkerboard assay; type: functional
# [5] = system: Pseudomonas aeruginosa; assay: Antibiotic adjuvant activity against multi-drug resistant Pseudomonas aeruginosa clinical isolate PA114228 assessed as fold potentiation incubated for 18 hrs in presence of minocycline by two fold broth microdilution checkerboard assay; type: functional
# [6] = system: Acinetobacter baumannii; assay: Antibiotic adjuvant activity against Acinetobacter baumannii ATCC 17978 assessed as fold increase in MIC incubated for 18 hrs in presence of rifampicin and CAMHB Mg2+ media by two fold broth microdilution checkerboard assay; type: functional
# [7] = system: Enterococcus faecium; assay: Antibiotic adjuvant activity against Enterococcus faecium 114278 assessed as inhibition of bacterial growth incubated for 18 hrs in presence of rifampicin by two fold broth microdilution checkerboard assay; type: functional
# [8] = system: Pseudomonas aeruginosa; assay: Antibiotic adjuvant activity against multi-drug resistant Pseudomonas aeruginosa clinical isolate PA114228 assessed as doxycycline MIC incubated for 18 hrs in presence of doxycycline by two fold broth microdilution checkerboard assay; type: functional
# [9] = system: Acinetobacter baumannii; assay: Antibiotic adjuvant activity against multi-drug resistant Acinetobacter baumannii clinical isolate LAC-4 assessed as rifampicin MIC incubated for 18 hrs in presence of Rifampicin by two fold broth microdilution checkerboard assay; type: functional
# [10] = system: Pseudomonas aeruginosa; assay: Antibiotic adjuvant activity against Pseudomonas aeruginosa PAO1 assessed as fold increase in MIC incubated for 18 hrs in presence of rifampicin and CAMHB Mg2+ media by two fold broth microdilution checkerboard assay; type: functional
# [11] = system: Acinetobacter baumannii; assay: Antibiotic adjuvant activity against Acinetobacter baumannii ATCC 17978 assessed as fold potentiation incubated for 18 hrs in presence of novobiocin by two fold broth microdilution checkerboard assay; type: functional
# [12] = system: Escherichia coli; assay: Antibiotic adjuvant activity against Escherichia coli ATCC 25922 assessed as doxycycline MIC incubated for 18 hrs in presence of doxycycline by two fold broth microdilution checkerboard assay; type: functional
# [13] = system: Pseudomonas aeruginosa; assay: Antibiotic adjuvant activity against multi-drug resistant Pseudomonas aeruginosa clinical isolate PA101243 assessed as fold potentiation incubated for 18 hrs in presence of minocycline by two fold broth microdilution checkerboard assay; type: functional
# [14] = system: Escherichia coli; assay: Antibiotic adjuvant activity against multi-drug resistant Escherichia coli clinical isolate 94474 assessed as rifampicin MIC incubated for 18 hrs in presence of Rifampicin by two fold broth microdilution checkerboard assay; type: functional
# [15] = system: Pseudomonas aeruginosa; assay: Antibiotic adjuvant activity against Pseudomonas aeruginosa PAO1 assessed as fold potentiation incubated for 18 hrs in presence of minocycline by two fold broth microdilution checkerboard assay; type: functional
# [16] = system: Pseudomonas aeruginosa; assay: Antibacterial activity against Pseudomonas aeruginosa PAO1 assessed as inhibition of bacterial growth incubated for 18 hrs by two fold broth microdilution assay; type: functional
# [17] = system: Acinetobacter baumannii; assay: Antibiotic adjuvant activity against multi-drug resistant Acinetobacter baumannii clinical isolate 110193 assessed as inhibition of bacterial growth incubated for 18 hrs in presence of Rifampicin by two fold broth microdilution checkerboard assay; type: functional
# [18] = system: Pseudomonas aeruginosa; assay: Antibiotic adjuvant activity against multi-drug resistant Pseudomonas aeruginosa clinical isolate PA101243 assessed as doxycycline MIC incubated for 18 hrs in presence of doxycycline by two fold broth microdilution checkerboard assay; type: functional
# [19] = system: Cell membrane; assay: Induction of outer membrane permeabilization in Escherichia coli ATCC 25922 assessed as increase fluorescence intensity by measuring NPN uptake factor by fluorescence based analysis; type: subcellular
# [20] = system: Escherichia coli; assay: Antibiotic adjuvant activity against Escherichia coli ATCC 25922 assessed as fold potentiation incubated for 18 hrs in presence of novobiocin by two fold broth microdilution checkerboard assay; type: functional
# [21] = system: Escherichia coli; assay: Antibiotic adjuvant activity against multi-drug resistant Escherichia coli clinical isolate 94393 assessed as inhibition of bacterial growth incubated for 18 hrs in presence of Rifampicin by two fold broth microdilution checkerboard assay; type: functional
# [22] = system: Pseudomonas aeruginosa; assay: Antibiotic adjuvant activity against multi-drug resistant Pseudomonas aeruginosa clinical isolate PA264 assessed as fold potentiation incubated for 18 hrs in presence of Rifampicin by two fold broth microdilution checkerboard assay; type: functional
# [23] = system: Pseudomonas aeruginosa; assay: Antibiotic adjuvant activity against multi-drug resistant Pseudomonas aeruginosa clinical isolate PA262 assessed as inhibition of bacterial growth incubated for 18 hrs in presence of doxycycline by two fold broth microdilution checkerboard assay; type: functional
# [24] = system: Pseudomonas aeruginosa; assay: Antibiotic adjuvant activity against multi-drug resistant Pseudomonas aeruginosa clinical isolate PA259 assessed as fractional inhibitory concentration index incubated for 18 hrs in presence of minocycline by two fold broth microdilution checkerboard assay; type: functional
# [25] = system: Pseudomonas aeruginosa; assay: Antibiotic adjuvant activity against multi-drug resistant Pseudomonas aeruginosa clinical isolate PA114228 assessed as minocycline MIC incubated for 18 hrs in presence of minocycline by two fold broth microdilution checkerboard assay; type: functional
# [26] = system: Acinetobacter baumannii; assay: Antibacterial activity against multi-drug resistant Acinetobacter baumannii clinical isolate AB027 assessed as inhibition of bacterial growth incubated for 18 hrs by two fold broth microdilution assay; type: functional
# [27] = system: Escherichia coli; assay: Antibiotic adjuvant activity against multi-drug resistant Escherichia coli clinical isolate EC94474 assessed as doxycycline MIC incubated for 18 hrs in presence of doxycycline by two fold broth microdilution checkerboard assay; type: functional
# [28] = system: Acinetobacter baumannii; assay: Antibiotic adjuvant activity against Acinetobacter baumannii ATCC 17978 assessed as minocycline MIC incubated for 18 hrs in presence of minocycline by two fold broth microdilution checkerboard assay; type: functional
# [29] = system: Acinetobacter baumannii; assay: Antibiotic adjuvant activity against Acinetobacter baumannii ATCC 17978 assessed as rifampicin MIC incubated for 18 hrs in presence of Rifampicin by two fold broth microdilution checkerboard assay; type: functional
# [30] = system: Pseudomonas aeruginosa; assay: Antibacterial activity against multi-drug resistant Pseudomonas aeruginosa clinical isolate 114228 assessed as inhibition of bacterial growth incubated for 18 hrs by two fold broth microdilution assay; type: functional
# [31] = system: Escherichia coli; assay: Antibiotic adjuvant activity against multi-drug resistant Escherichia coli clinical isolate 107115 assessed as fold potentiation incubated for 18 hrs in presence of Rifampicin by two fold broth microdilution checkerboard assay; type: functional
# [32] = system: Acinetobacter baumannii; assay: Antibiotic adjuvant activity against multi-drug resistant Acinetobacter baumannii clinical isolate AB031 assessed as inhibition of bacterial growth incubated for 18 hrs in presence of Rifampicin by two fold broth microdilution checkerboard assay; type: functional
# [33] = system: Escherichia coli; assay: Antibiotic adjuvant activity against multi-drug resistant Escherichia coli clinical isolate 94393 assessed as rifampicin MIC incubated for 18 hrs in presence of Rifampicin by two fold broth microdilution checkerboard assay; type: functional
# [34] = system: Pseudomonas aeruginosa; assay: Antibacterial activity against multi-drug resistant Pseudomonas aeruginosa clinical isolate PA101243 assessed as inhibition of bacterial growth incubated for 18 hrs by two fold broth microdilution assay; type: functional
# [35] = system: Pseudomonas aeruginosa; assay: Antibiotic adjuvant activity against multi-drug resistant Pseudomonas aeruginosa clinical isolate PA264 assessed as fractional inhibitory concentration index incubated for 18 hrs in presence of minocycline by two fold broth microdilution checkerboard assay; type: functional
# [36] = system: Pseudomonas aeruginosa; assay: Antibacterial activity against multi-drug resistant Pseudomonas aeruginosa clinical isolate PA264 assessed as inhibition of bacterial growth incubated for 18 hrs by two fold broth microdilution assay; type: functional
smiles,measurement,setting,value
Cl.NC[C@H]1O[C@H](O[C@H]2[C@H](OCc3ccccc3)[C@@H](O[C@H]3O[C@H](COCc4ccccc4)[C@@H](OCc4ccccc4)[C@H](N)[C@H]3OCc3ccccc3)[C@H](N)C[C@@H]2N)[C@H](N)C[C@@H]1OCc1ccccc1,MIC,[1],64 µg/mL
same,fold change (FC),[2],8
same,fractional inhibitory concentration index (FICI),[3],0.251
same,fractional inhibitory concentration index (FICI),[4],0.251
same,fold change (FC),[5],1
same,fold change (FC),[6],>=2
same,MIC,[7],4 µg/mL
same,MIC,[8],> 128 µg/mL
same,MIC,[9],0.002 µg/mL
same,fold change (FC),[10],>=2
same,fold change (FC),[11],2048
same,MIC,[12],0.125 µg/mL
same,fold change (FC),[13],1
same,MIC,[14],0.031 µg/mL
same,fold change (FC),[15],64
same,MIC,[16],64 µg/mL
same,MIC,[17],8 µg/mL
same,MIC,[18],> 128 µg/mL
same,Activity,[19],Dose-Dependent Effect
same,fold change (FC),[20],2048
same,MIC,[21],8 µg/mL
same,fold change (FC),[22],1
same,MIC,[23],8 µg/mL
same,fractional inhibitory concentration index (FICI),[24],1.063
same,MIC,[25],128 µg/mL
same,MIC,[26],64 µg/mL
same,MIC,[27],8 µg/mL
same,MIC,[28],≤ 4 µg/mL
same,MIC,[29],0.004 µg/mL
same,MIC,[30],64 µg/mL
same,fold change (FC),[31],1024
same,MIC,[32],8 µg/mL
same,MIC,[33],32 µg/mL
same,MIC,[34],64 µg/mL
same,fractional inhibitory concentration index (FICI),[35],0.563
same,MIC,[36],128 µg/mL
